Test results from patent US9695155B2, “Herbicidal substituted pyrimidinyloxy benzene compounds” (E. I. DU PONT DE NEMOURS AND COMPANY, priority 2013, dated 2017).

Columns and labels:
[1] = tested on: cupgrass, woolly; assay: Test C postemergence; format: in vivo, Eriochloa villosa; details: for Plant response rating (0 to 100), Cupgrass, Woolly: postemergence; for Plant response rating, Cupgrass, Woolly: Postemergence, scale 0 to 100 (0 no effect, 100 complete control)
Text: (§1) Seeds of plant species selected from blackgrass (Alopecurus myosuroides), Italian ryegrass (Lolium multiflorum), wheat, winter (winter wheat, Triticum aestivum), galium (catchweed bedstraw, Galium aparine), corn (Zea mays), large (Lg) crabgrass (Digitaria sanguinalis), giant foxtail (Setaria faberii), johnsongrass (Sorghum halepense), lambsquarters (Chenopodium album), morningglory (Ipomoea coccinea), yellow nutsedge (Cyperus esculentus), pigweed (Amaranthus retroflexus), ragweed (common ragweed, Ambrosia elatior), soybean (Glycine max), barnyardgrass (Echinochloa crus-galli), oilseed rape (Brassica napus), waterhemp (common waterhemp, Amaranthus rudis), kochia (Kochia scoparia), wild oat (Avena fatua), surinam grass (Brachiaria decumbens), foxtail, green (green foxtail, Setaria viridis), goosegrass (Eleusine indica), bromegrass, downy (downy bromegrass, Bromus tectorum), nightshade (eastern black nightshade, Solanum ptycanthum), cocklebur (common cocklebur, Xanthium strumarium), cupgrass, woolly (woolly cupgrass, Eriochloa villosa), bermudagrass (Cynodon dactylon), sunflower, (common oilseed sunflower, Helianthus annuus), Russian thistle (Salsola kali), and velvetleaf (Abutilon theophrasti) were planted into a blend of loam soil and sand and treated preemergence with test chemicals formulated in a non-phytotoxic solvent mixture which included a surfactant.
(§2) At the same time, plants selected from these crop and weed species and also barley, winter (winter barley, Hordeum vulgare), windgrass (Apera spica-venti), chickweed (common chickweed, Stellaria media), deadnettle (henbit deadnettle, Lamium amplexicaule), and canarygrass (littleseed canarygrass, Phalaris minor) were planted in pots containing Redi-Earth® planting medium (Scotts Company, 14111 Scottslawn Road, Marysville, Ohio 43041) comprising spaghnum peat moss, vermiculite, wetting agent and starter nutrients and treated with postemergence applications of test chemicals formulated in the same manner. Plants ranged in height from 2 to 18 cm (1- to 4-leaf stage) for postemergence treatments. Treated plants and controls were maintained in a greenhouse for 13 to 15 days, after which time all species were compared to controls and visually evaluated. Plant response ratings, summarized in Table C, are based on a scale of 0 to 100 where 0 is no effect and 100 is complete control. A dash (-) response means no test result.

[2] = tested on: canarygrass; assay: Test C postemergence; format: in vivo, Phalaris minor; details: for Plant response rating (0 to 100), Canarygrass: postemergence; for Plant response rating, Canarygrass: Postemergence, scale 0 to 100 (0 no effect, 100 complete control)
Text: as §1, §2

[3] = tested on: surinam grass; assay: Test C postemergence; format: in vivo, Brachiaria decumbens; details: for Plant response rating, Surinam Grass: Postemergence, scale 0 to 100 (0 no effect, 100 complete control)
Text: as §1
as §2, with “Treated plants and controls were maintained in a greenhouse for 13 to 15 days, after which time all species were compared to controls and visually evaluated. Plant response ratings, summarized in Table C, are based on a scale of 0 to 100 where 0 is no effect and 100 is complete control. A dash (-) response means no test result.” left out

[4] = tested on: goosegrass; assay: Test C postemergence; format: in vivo, Eleusine indica; details: for Plant response rating (0 to 100), Goosegrass: postemergence; for Plant response rating, Goosegrass: Postemergence, scale 0 to 100 (0 no effect, 100 complete control)
Text: as §1, §2

[5] = tested on: windgrass; assay: Test C postemergence; format: in vivo, Apera spica-venti; details: for Plant response rating (0 to 100), Windgrass: postemergence; for Plant response rating, Windgrass: Postemergence, scale 0 to 100 (0 no effect, 100 complete control)
Text: as §1, §2

[6] = tested on: cocklebur; assay: Test C postemergence; format: in vivo, Xanthium strumarium; details: for Plant response rating (0 to 100), Cocklebur: postemergence; for Plant response rating, Cocklebur: Postemergence, scale 0 to 100 (0 no effect, 100 complete control)
Text: as §1, §2

[7] = tested on: deadnettle; assay: Test C postemergence; format: in vivo, Lamium amplexicaule; details: for Plant response rating (0 to 100), Deadnettle: postemergence; for Plant response rating, Deadnettle: Postemergence, scale 0 to 100 (0 no effect, 100 complete control)
Text: as §1, §2

[8] = tested on: barley, winter; assay: Test C postemergence; format: in vivo, Hordeum vulgare; details: for Plant response rating (0 to 100), Barley: postemergence; for Plant response rating, Barley: Postemergence, scale 0 to 100 (0 no effect, 100 complete control)
Text: as §1, §2

[9] = tested on: bromegrass, downy; assay: Test C postemergence; format: in vivo, Bromus tectorum; details: for Plant response rating (0 to 100), Bromegrass, Downy: postemergence; for Plant response rating, Bromegrass, Downy: Postemergence, scale 0 to 100 (0 no effect, 100 complete control)
Text: as §1, §2

[10] = tested on: bermudagrass; assay: Test C postemergence; format: in vivo, Cynodon dactylon; details: for Plant response rating (0 to 100), Bermudagrass: postemergence; for Plant response rating, Bermudagrass: Postemergence, scale 0 to 100 (0 no effect, 100 complete control)
Text: as §1, §2

[11] = tested on: foxtail, green; assay: Test C postemergence; format: in vivo, Setaria viridis; details: for Plant response rating (0 to 100), Foxtail, Green: postemergence; for Plant response rating, Foxtail, Green: Postemergence, scale 0 to 100 (0 no effect, 100 complete control)
Text: as §1, §2

[12] = tested on: smartweed; assay: Test E preemergence; format: in vivo, ladysthumb smartweed; details: for Smartweed plant response rating: scale 0 to 100 (0 no effect, 100 complete control); for Plant response rating, Smartweed: scale 0 to 100, 0 no effect, 100 complete control
Text: (§3) Seeds of plant species selected from corn (Zea mays), soybean (Glycine max), velvetleaf (Abutilon theophrasti), lambsquarters (Chenopodium album), wild poinsettia (Euphorbia heterophylla), palmer pigweed (Amaranthus palmeri), waterhemp (common waterhemp, Amaranthus rudis), surinam grass (Brachiaria decumbens), large (Lg) crabgrass (Digitaria sanguinalis), Brazilian crabgrass (Digitaria horizontalis), fall panicum (Panicum dichotomiflorum), giant foxtail (Setaria faberii), green foxtail (Setaria viridis), goosegrass (Eleusine indica), johnsongrass (Sorghum halepense), ragweed (common ragweed, Ambrosia elatior), barnyardgrass (Echinochloa crus-galli), sandbur (southern sandbur, Cenchrus echinatus), arrowleaf sida (Sida rhombifolia), Italian ryegrass (Lolium multiflorum), dayflower (Virginia (VA) dayflower, Commelina virginica), field bindweed (Convolvulus arvensis), morningglory (Ipomoea coccinea), nightshade (eastern black nightshade, Solanum ptycanthum), kochia (Kochia scoparia), yellow nutsedge (Cyperus esculentus), cocklebur (common cocklebur, Xanthium strumarium), smartweed (ladysthumb smartweed, and hairy beggarticks (Bidens pilosa), were planted into a silt loam soil and treated preemergence with test chemicals formulated in a non-phytotoxic solvent mixture which included a surfactant.
(§4) At the same time, plants from these crop and weed species and also horseweed (Canada horseweed, Conyza canadensis), waterhemp_RES1, (ALS & Triazine resistant common waterhemp, Amaranthus rudis), and waterhemp_RES2, (ALS & HPPD resistant common waterhemp, Amaranthus rudis) were planted in pots containing Redi-Earth® planting medium (Scotts Company, 14111 Scottslawn Road, Marysville, Ohio 43041) comprising spaghnum peat moss, vermiculite, wetting agent and starter nutrients were treated with postemergence applications of test chemicals formulated in the same manner. Plants ranged in height from 2 to 18 cm for postemergence treatments (1- to 4-leaf stage). Treated plants and controls were maintained in a greenhouse for 14 to 21 days, after which time all species were compared to controls and visually evaluated. Plant response ratings, summarized in Table E, are based on a scale of 0 to 100 where 0 is no effect and 100 is complete control. A dash (-) response means no test result.

[13] = tested on: horseweed; assay: Test E postemergence; format: in vivo, Conyza canadensis
Text: as §3, §4

[14] = Postemergence, 31 g ai/ha, scale 0 to 100
[15] = Postemergence, 62 g ai/ha, scale 0 to 100
[16] = Postemergence, 125 g ai/ha, scale 0 to 100
[17] = postemergence, 16 g ai/ha, scale 0 to 100, 0 no effect, 100 complete control

Clc1cnn(-c2ccccc2Oc2ncc(Br)cn2)c1 [Compound 5, 5-bromo-2-[2-(4-chloro-1H-pyrazol-1-yl)phenoxy]pyrimidine]
Plant response rating (0 to 100), Cupgrass, Woolly ([1]; 125 g ai/ha): 10
Plant response rating (0 to 100), Cupgrass, Woolly ([1]; 250 g ai/ha): 30
Plant response rating, Cupgrass, Woolly ([1]; 31 g ai/ha, 13 to 15 days): 0
Plant response rating, Cupgrass, Woolly ([1]; 62 g ai/ha): 10
Plant response rating (0 to 100), Canarygrass ([2]; 125 g ai/ha): 30
Plant response rating (0 to 100), Canarygrass ([2]; 250 g ai/ha): 40
Plant response rating, Canarygrass ([2]; 31 g ai/ha, 13 to 15 days): 5
Plant response rating, Canarygrass ([2]; 62 g ai/ha): 10
Plant response rating (0 to 100), Surinam Grass ([3]; 125 g ai/ha, postemergence): 45
Plant response rating, Surinam Grass ([3]; 31 g ai/ha, 13 to 15 days): 10
Plant response rating, Surinam Grass ([3]; 62 g ai/ha): 35
Plant response rating (0 to 100), Goosegrass ([4]; 125 g ai/ha): 10
Plant response rating (0 to 100), Goosegrass ([4]; 250 g ai/ha): 15
Plant response rating, Goosegrass ([4]; 31 g ai/ha, 13 to 15 days): 0
Plant response rating, Goosegrass ([4]; 62 g ai/ha): 5
Plant response rating (0 to 100), Windgrass ([5]; 125 g ai/ha): 60
Plant response rating (0 to 100), Windgrass ([5]; 250 g ai/ha): 85
Plant response rating, Windgrass ([5]; 31 g ai/ha, 13 to 15 days): 10
Plant response rating, Windgrass ([5]; 62 g ai/ha): 40
Plant response rating (0 to 100), Cocklebur ([6]; 125 g ai/ha): 50
Plant response rating (0 to 100), Cocklebur ([6]; 250 g ai/ha): 65
Plant response rating, Cocklebur ([6]; 31 g ai/ha, 13 to 15 days): 25
Plant response rating, Cocklebur ([6]; 62 g ai/ha): 50
Plant response rating (0 to 100), Deadnettle ([7]; 125 g ai/ha): 90
Plant response rating (0 to 100), Deadnettle ([7]; 250 g ai/ha): 90
Plant response rating, Deadnettle ([7]; 31 g ai/ha, 13 to 15 days): 50
Plant response rating, Deadnettle ([7]; 62 g ai/ha): 50
Plant response rating (0 to 100), Barley ([8]; 125 g ai/ha): 5
Plant response rating (0 to 100), Barley ([8]; 250 g ai/ha): 10
Plant response rating, Barley ([8]; 31 g ai/ha, 13 to 15 days): 0
Plant response rating, Barley ([8]; 62 g ai/ha): 0
Plant response rating (0 to 100), Bromegrass, Downy ([9]; 125 g ai/ha): 5
Plant response rating (0 to 100), Bromegrass, Downy ([9]; 250 g ai/ha): 10
Plant response rating, Bromegrass, Downy ([9]; 31 g ai/ha, 13 to 15 days): 5
Plant response rating, Bromegrass, Downy ([9]; 62 g ai/ha): 5
Plant response rating (0 to 100), Bermudagrass ([10]; 125 g ai/ha): 10
Plant response rating (0 to 100), Bermudagrass ([10]; 250 g ai/ha): 35
Plant response rating, Bermudagrass ([10]; 31 g ai/ha, 13 to 15 days): 0
Plant response rating, Bermudagrass ([10]; 62 g ai/ha): 0
Plant response rating (0 to 100), Foxtail, Green ([11]; 125 g ai/ha): 40
Plant response rating (0 to 100), Foxtail, Green ([11]; 250 g ai/ha): 70
Plant response rating, Foxtail, Green ([11]; 31 g ai/ha, 13 to 15 days): 0
Plant response rating, Foxtail, Green ([11]; 62 g ai/ha): 40

N#Cc1cccc(Oc2ncc(Cl)cn2)c1-n1cc(Cl)cn1 [Compound 72]
Smartweed plant response rating ([12]; 16 g ai/ha): 0
Smartweed plant response rating ([12]; 31 g ai/ha): 0
Smartweed plant response rating ([12]; 62 g ai/ha): 0
Plant response rating, Smartweed ([12]; 125 g ai/ha): 90
Plant response rating, Smartweed ([12]; 250 g ai/ha): 98

Clc1cnc(Oc2cccc(Cl)c2-n2cc(I)cn2)nc1 [Compound 181]
Plant response rating, Horseweed [13, 14]: 0
Plant response rating, Horseweed [13, 15]: 5
Plant response rating, Horseweed [13, 16]: 5
Plant response rating, Horseweed [13, 17]: 0

N#Cc1cccc(Oc2ncc(F)cn2)c1-n1cc(C(F)(F)F)cn1 [Compound 79, 3-[(5-fluoro-2-pyrimidinyl)oxy]-2-[4-(trifluoromethyl)-1H-pyrazol-1-yl]benzonitrile]
Plant response rating, Horseweed [13, 14]: 0
Plant response rating, Horseweed [13, 15]: 20
Plant response rating, Horseweed [13, 16]: 30
Plant response rating, Horseweed [13, 17]: 0
